# Data published in publication PMC7613998, “Development of selective inhibitors of phosphatidylinositol 3-kinase C2α” (Nature Chemical Biology, 2022).
# Assays:
# Experiment in all cases: biochemical
# Set-up in all cases: SelectScreen Z'-LYTE purified kinase panel, per cent inhibition, mean of two points
# [1] = biological target: AURKB (Aurora B) (Homo sapiens, UniProt Q96GD4); conditions: (μM)=Km app
# [2] = biological target: T1, AXL (Homo sapiens, UniProt P30530); conditions: (μM)=Km app
# T1 sequence (P30530 1-894): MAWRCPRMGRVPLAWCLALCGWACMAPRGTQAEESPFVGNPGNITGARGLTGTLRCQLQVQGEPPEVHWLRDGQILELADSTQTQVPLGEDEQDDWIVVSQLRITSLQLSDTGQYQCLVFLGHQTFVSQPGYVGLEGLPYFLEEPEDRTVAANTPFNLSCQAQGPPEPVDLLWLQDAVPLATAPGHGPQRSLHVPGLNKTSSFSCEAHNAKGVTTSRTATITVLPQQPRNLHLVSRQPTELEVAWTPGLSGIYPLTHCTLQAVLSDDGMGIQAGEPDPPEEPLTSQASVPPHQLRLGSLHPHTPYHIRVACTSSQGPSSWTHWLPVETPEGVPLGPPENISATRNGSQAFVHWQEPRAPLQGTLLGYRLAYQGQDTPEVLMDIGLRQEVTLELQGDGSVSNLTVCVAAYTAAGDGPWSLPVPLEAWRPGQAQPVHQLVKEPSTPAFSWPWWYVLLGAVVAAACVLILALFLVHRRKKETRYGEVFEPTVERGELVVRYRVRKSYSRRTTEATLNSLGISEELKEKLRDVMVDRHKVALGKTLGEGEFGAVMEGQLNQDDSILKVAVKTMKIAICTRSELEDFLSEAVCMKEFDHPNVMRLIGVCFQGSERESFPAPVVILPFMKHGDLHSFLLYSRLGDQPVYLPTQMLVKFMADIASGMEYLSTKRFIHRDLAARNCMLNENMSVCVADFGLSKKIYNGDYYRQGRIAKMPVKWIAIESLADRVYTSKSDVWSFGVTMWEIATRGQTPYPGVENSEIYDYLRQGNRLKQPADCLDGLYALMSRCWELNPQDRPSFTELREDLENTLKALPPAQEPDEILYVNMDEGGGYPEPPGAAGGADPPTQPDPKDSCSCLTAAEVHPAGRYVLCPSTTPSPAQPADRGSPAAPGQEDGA
# [3] = biological target: FGFR3 (Homo sapiens, UniProt P22607); conditions: (μM)=Km app
# [4] = biological target: MARK3 (Homo sapiens, UniProt P27448); conditions: (μM)=Km app
# [5] = biological target: T2, PDK1 (Homo sapiens, UniProt O15530); conditions: (μM)=100
# T2 construct: gene PDPK1
# T2 sequence (O15530 1-556): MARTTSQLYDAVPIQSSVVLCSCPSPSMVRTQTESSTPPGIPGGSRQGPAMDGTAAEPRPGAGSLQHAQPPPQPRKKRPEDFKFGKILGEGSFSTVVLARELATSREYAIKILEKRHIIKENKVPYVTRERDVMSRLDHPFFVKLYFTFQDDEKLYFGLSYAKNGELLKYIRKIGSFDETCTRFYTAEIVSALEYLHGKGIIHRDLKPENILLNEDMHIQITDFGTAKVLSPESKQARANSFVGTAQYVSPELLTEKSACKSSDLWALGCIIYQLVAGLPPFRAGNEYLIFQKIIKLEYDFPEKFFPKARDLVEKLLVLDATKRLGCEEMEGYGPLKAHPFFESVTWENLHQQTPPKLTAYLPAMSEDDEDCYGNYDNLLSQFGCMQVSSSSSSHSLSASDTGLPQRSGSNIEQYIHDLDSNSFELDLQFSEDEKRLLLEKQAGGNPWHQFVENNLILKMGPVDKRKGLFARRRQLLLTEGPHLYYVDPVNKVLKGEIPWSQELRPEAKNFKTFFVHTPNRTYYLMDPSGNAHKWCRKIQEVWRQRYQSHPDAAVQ
# [6] = biological target: PRKCA (PKC alpha) (Homo sapiens, UniProt P17252); conditions: (μM)=Km app
# [7] = biological target: SRC (Homo sapiens, UniProt P12931); conditions: (μM)=Km app
# [8] = biological target: T3, ZAP70 (Homo sapiens, UniProt P43403); conditions: (μM)=Km app
# T3 sequence (P43403 1-619): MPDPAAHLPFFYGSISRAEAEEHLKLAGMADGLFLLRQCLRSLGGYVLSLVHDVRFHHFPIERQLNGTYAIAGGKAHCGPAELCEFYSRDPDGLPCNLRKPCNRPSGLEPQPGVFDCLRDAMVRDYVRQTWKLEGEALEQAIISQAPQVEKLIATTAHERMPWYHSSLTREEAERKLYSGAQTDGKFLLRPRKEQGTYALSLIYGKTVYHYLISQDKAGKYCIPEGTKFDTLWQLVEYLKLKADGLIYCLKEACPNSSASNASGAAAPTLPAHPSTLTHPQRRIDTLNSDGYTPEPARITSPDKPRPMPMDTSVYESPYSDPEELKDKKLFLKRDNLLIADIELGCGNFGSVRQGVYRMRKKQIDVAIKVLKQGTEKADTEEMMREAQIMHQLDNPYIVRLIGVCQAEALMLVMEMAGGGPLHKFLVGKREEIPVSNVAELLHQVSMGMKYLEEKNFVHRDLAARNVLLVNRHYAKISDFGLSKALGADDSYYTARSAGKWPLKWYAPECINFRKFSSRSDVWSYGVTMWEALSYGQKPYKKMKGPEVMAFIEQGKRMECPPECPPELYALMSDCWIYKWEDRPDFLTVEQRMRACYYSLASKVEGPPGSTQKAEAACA
# Chain of MARK3 (P27448 whole entry): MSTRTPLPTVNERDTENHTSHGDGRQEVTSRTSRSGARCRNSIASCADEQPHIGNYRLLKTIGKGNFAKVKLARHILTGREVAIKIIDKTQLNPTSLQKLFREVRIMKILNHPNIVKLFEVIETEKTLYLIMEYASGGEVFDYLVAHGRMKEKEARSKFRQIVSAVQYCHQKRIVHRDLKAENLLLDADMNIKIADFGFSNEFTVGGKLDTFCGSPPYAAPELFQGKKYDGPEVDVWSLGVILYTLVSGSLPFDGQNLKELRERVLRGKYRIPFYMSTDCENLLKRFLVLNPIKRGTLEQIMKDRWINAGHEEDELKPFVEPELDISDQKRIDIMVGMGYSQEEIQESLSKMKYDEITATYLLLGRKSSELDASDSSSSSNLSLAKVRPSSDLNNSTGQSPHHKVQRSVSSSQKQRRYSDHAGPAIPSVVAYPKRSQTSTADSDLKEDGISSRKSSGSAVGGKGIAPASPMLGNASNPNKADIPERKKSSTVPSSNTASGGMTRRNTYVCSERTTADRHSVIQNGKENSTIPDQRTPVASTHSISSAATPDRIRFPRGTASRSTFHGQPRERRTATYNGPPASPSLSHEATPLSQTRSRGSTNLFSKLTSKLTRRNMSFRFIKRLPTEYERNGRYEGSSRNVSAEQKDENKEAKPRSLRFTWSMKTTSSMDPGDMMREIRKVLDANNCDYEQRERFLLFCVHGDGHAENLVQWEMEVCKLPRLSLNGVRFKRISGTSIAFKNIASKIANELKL
# Chain of FGFR3 (P22607 whole entry): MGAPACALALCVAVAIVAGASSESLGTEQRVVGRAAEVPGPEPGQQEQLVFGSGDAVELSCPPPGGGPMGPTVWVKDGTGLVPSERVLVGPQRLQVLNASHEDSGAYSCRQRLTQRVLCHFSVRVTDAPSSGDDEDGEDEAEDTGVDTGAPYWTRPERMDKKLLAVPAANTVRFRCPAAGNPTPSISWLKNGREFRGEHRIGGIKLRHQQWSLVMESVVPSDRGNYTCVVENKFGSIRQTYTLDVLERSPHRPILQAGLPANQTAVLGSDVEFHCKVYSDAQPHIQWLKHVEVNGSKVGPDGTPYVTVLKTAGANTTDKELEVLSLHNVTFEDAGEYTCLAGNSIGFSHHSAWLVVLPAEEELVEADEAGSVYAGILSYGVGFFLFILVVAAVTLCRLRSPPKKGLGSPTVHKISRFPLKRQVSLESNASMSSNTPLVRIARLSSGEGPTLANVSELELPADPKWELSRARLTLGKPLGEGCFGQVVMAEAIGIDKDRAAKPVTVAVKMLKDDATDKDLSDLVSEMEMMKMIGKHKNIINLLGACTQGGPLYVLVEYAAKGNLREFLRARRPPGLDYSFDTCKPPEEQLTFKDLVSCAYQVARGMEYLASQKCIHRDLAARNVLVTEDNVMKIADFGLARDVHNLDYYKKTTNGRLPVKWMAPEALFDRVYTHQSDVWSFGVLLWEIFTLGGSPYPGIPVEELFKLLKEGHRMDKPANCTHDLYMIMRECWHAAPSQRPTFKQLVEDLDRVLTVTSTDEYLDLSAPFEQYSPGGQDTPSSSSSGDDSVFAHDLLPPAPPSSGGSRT
# Chain of AURKB (Aurora B) (Q96GD4 whole entry): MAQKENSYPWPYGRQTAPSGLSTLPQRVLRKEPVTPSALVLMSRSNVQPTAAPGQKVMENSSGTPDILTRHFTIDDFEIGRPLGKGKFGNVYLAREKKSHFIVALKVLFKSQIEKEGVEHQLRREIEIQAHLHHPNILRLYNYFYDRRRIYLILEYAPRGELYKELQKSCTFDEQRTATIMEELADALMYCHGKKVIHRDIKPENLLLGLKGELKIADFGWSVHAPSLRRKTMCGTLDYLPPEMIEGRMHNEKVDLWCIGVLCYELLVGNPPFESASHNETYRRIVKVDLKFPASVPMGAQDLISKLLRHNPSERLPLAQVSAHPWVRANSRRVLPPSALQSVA
# Chain of SRC (P12931 whole entry): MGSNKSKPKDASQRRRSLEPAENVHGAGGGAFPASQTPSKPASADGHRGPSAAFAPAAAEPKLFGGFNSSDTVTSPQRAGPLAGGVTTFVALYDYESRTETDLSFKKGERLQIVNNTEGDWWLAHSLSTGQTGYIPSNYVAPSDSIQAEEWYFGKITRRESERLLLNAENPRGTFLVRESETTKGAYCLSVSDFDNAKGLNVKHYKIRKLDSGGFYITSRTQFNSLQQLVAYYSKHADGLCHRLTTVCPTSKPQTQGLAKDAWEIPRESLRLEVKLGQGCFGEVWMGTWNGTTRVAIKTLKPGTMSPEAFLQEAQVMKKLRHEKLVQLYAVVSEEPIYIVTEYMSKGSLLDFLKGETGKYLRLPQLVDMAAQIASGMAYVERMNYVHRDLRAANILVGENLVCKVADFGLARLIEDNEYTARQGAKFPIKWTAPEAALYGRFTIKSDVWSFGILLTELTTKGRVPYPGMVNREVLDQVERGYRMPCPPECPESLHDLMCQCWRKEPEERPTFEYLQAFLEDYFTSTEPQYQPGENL
inhibition at 1 µM [1],inhibition at 3 µM [1],inhibition at 10 µM [1],inhibition at 1 µM [2],inhibition at 3 µM [2],inhibition at 10 µM [2],inhibition at 1 µM [3],inhibition at 3 µM [3],inhibition at 10 µM [3],inhibition at 1 µM [4],inhibition at 3 µM [4],inhibition at 10 µM [4],inhibition at 1 µM [5],inhibition at 3 µM [5],inhibition at 10 µM [5],inhibition at 1 µM [6],inhibition at 3 µM [6],inhibition at 10 µM [6],inhibition at 1 µM [7],inhibition at 3 µM [7],SMILES,other results
-15.7%,-5.68%,-10.8%,-3.88%,-5.8%,-2.92%,7.72%,-7.09%,-15.3%,2.69%,11.3%,0.672%,8.23%,7.27%,6.69%,6.59%,10%,0.714%,8.59%,3.7%,"O=C(CSc1nc2nccnc2c(=O)n1CCc1ccccc1)Nc1nccs1 [compound 1, PITCOIN1]",inhibition at 10 µM [7]: 9.6%; inhibition at 1 µM [8]: 13.7%; inhibition at 3 µM [8]: 11.6%; inhibition at 10 µM [8]: 9.43%
-3.65%,2.11%,6.27%,-4.95%,-1.87%,-3.45%,-8.51%,0.972%,8.3%,1.74%,4.94%,6.84%,9.47%,5.91%,10.5%,0.445%,18.8%,15.2%,9.83%,12.2%,"CS(=O)(=O)Nc1cccc(-c2csc(NC(=O)CSc3nc4nccnc4c(=O)n3CCc3ccccc3)n2)c1 [compound 3, PITCOIN3]",inhibition at 10 µM [7]: 7.36%; inhibition at 1 µM [8]: 17.4%; inhibition at 3 µM [8]: 12.6%; inhibition at 10 µM [8]: 14.5%
